Data from ChEMBL document CHEMBL3826917, “Anti-inflammatory properties of pterocarpanquinone LQB-118 in mice” (Bioorg Med Chem, 2016).
The source made the active and inactive calls. The calls are words filed in the database; no cut-off is given here.

Legend:
[1] = system: Mus musculus; test: Antiinflammatory activity in LPS-induced C57BL/6 mouse model of lung inflammation assessed as reduction in keratinocyte-derived chemokine release in bronchoalveolar lavage fluid at 10 mg/kg, ip administered 1 hr prior to LPS-challenge measured after 3 hrs by ELISA; type: functional, organism-based
[2] = system: Mus musculus; test: Antiinflammatory activity in LPS-induced C57BL/6 mouse model of lung inflammation assessed as reduction in TNF-alpha release in bronchoalveolar lavage fluid at 10 mg/kg, ip administered 1 hr prior to LPS-challenge measured after 3 hrs by ELISA; type: functional, organism-based
[3] = system: Mus musculus; test: Antiinflammatory activity in LPS-induced C57BL/6 mouse model of lung inflammation assessed as reduction in NF-kappaB activation at 10 mg/kg, ip administered 1 hr prior to LPS-challenge measured after 3 hrs by electrophoretic mobility shift assay; type: functional, organism-based
[4] = system: Mus musculus; test: Toxicity in LPS-induced C57BL/6 mouse model of lung inflammation assessed as change in liver weight at 10 mg/kg, ip administered 1 hr prior to LPS-challenge measured after 3 hrs relative to control; type: organism-based; details: in vivo
[5] = system: Mus musculus; test: (§1) Antiinflammatory activity in LPS-induced C57BL/6 mouse model of lung inflammation assessed as decrease in neutrophil infiltration in bronchoalveolar lavage fluid at 10 mg/kg, ip administered 1 hr prior to LPS-challenge measured after 3 hrs by Diff-Quik staining-based coulter particle counter method; type: functional, organism-based
[6] = system: Mus musculus; test: Toxicity in LPS-induced C57BL/6 mouse model of lung inflammation assessed as change in spleen weight at 10 mg/kg, ip administered 1 hr prior to LPS-challenge measured after 3 hrs relative to control; type: organism-based; details: in vivo
[7] = system: Mus musculus; test: as §1, with “fluid at 1 to 10 mg/kg,” for “fluid at 10 mg/kg,”; type: functional, organism-based
[8] = system: Mus musculus; test: Toxicity in LPS-induced C57BL/6 mouse model of lung inflammation assessed as change in liver weight at 1 to 100 mg/kg, ip administered 1 hr prior to LPS-challenge measured after 3 hrs relative to control; type: organism-based; details: in vivo
[9] = system: Mus musculus; test: as §1, with “100” for “10”, “method relative to vehicle-treated control” for “method”; type: functional; details: C57BL/6, ip
[10] = system: Mus musculus; test: Toxicity in LPS-induced C57BL/6 mouse model of lung inflammation assessed as change in spleen weight at 1 to 100 mg/kg, ip administered 1 hr prior to LPS-challenge measured after 3 hrs relative to control; type: organism-based; details: in vivo
[11] = system: PBMC; test: Inhibition of LPS-induced TNF-alpha production in human PBMC at 1 to 100 uM administered prior to LPS-challenge measured after 2 hrs by ELISA; type: functional, cell-based

Row | Structure (SMILES) | Activity [1] | Activity [2] | Activity [3] | Activity [4] | Activity [5] | Activity [6] | Activity [7] | Activity [8] | inhibition in vivo at 100 mg/kg [9] [%] | Activity [10] | inhibition [11]
1 | CC(=O)Oc1ccccc1C(=O)O | Active | Active | Active |  |  |  |  |  |  |  | 
2 | C[C@@H]1C[C@H]2[C@@H]3CCC4=CC(=O)C=C[C@]4(C)[C@@]3(F)[C@@H](O)C[C@]2(C)[C@@]1(O)C(=O)CO [DEXAMETHASONE] | Active | Active |  | Toxic | Active | Toxic |  |  |  |  | 
3 | O=C1C2=C(C(=O)c3ccccc31)C1Oc3ccccc3C1CO2 (racemic) | inactive | Active | Active |  |  |  | Active | Non-toxic | 90 | Non-toxic | 
4 | CC(C)=CCC1=C(O)C(=O)c2ccccc2C1=O |  |  |  |  |  |  |  |  |  |  | inactive
